Source: paper PMC12167799, “The role of human Shu complex in ATP-dependent regulation of RAD51 filaments during homologous recombination–associated DNA damage response” (The Journal of Biological Chemistry, 2025)

Biological target: T1, hSWS1-SWSAP1 (human Shu complex) (Homo sapiens, UniProt Q6NVH7)
T1 construct: heterodimer co-expressed in High Five insect cells (baculovirus); SWSAP1 with TEV-cleavable N-terminal 6xHis tag (cleaved), SWS1 untagged; with Zinc finger SWIM domain-containing protein 7
T1 sequence (Q6NVH7 22-250): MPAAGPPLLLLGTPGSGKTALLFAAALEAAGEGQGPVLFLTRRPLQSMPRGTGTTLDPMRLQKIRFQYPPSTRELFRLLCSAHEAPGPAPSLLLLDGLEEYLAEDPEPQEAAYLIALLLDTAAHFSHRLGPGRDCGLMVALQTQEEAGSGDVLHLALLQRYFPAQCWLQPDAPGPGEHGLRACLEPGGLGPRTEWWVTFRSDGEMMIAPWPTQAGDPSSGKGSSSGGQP
T1 sequence (Q19AV6 1-140 partner): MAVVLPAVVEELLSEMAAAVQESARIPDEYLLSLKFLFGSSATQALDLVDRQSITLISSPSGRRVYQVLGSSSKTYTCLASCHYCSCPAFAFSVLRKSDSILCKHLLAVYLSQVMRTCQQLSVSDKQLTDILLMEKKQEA
Assay: TNP-ATP displacement fluorescence, one-site competitive fit
Type: binding
Details: read-out: Kd^ATP; 2 μM protein; 2.5 μM TNP-ATP; no DNA; 37 °C; competitive with TNP-ATP

## Nc1ncnc2c1ncn2[C@@H]1O[C@H](COP(=O)(O)OP(=O)(O)OP(=O)(O)O)[C@@H](O)[C@H]1O [ATP]
  Kd: 72.3 µM
